From patent publication US12030903B2, “Antiviral compounds” (Gilead Sciences, Inc., priority 2020, dated 2024)
Read-outs that look alike come from different tables or passages of the source.

Assays:
[1] = system: Dengue 2, New Guinea strain (NGC); assay: DENV-2 moDC EC50 (qPCR of viral RNA in infected moDCs); type: cell-based, New Guinea strain (NGC); human moDCs; conditions: human moDCs infected with Dengue 2 NGC, MOI=0.1, 48 hours
Summary of the method: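 moDCs differentiated 7 days from CD14+ monocytes with GM-CSF/IL-4, infected with Vero-derived DENV-2 NGC at MOI 0.1 for 2 h at 37 °C, then plated in triplicate with graded compound doses (0.25% DMSO). At 48 h viral RNA quantified by duplex TaqMan qPCR against GAPDH; EC50 normalized to positive and no-compound controls.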

[2] = moDC CC50 (CellTiter Glo viability); type: cell-based, Human; conditions: human, uninfected moDCs
[3] = system: Dengue serotype 2 New Guinea C (NGC) strain; assay: DENV-2 Huh-7 EC50 (qPCR of viral RNA in infected Huh7 cells); type: cell-based; conditions: MOI=0.1, 48 hours
Summary of the method: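 Huh7 cells were infected 2 h at 37 °C with DENV-2 NGC at MOI 0.1, then plated with graded compound doses (0.25% DMSO) in triplicate for 48 h. Viral RNA was quantified by duplex TaqMan qPCR against GAPDH. EC50 was normalized to positive and no-compound controls.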

[4] = Huh-7 CC50 (CellTiter Glo viability); type: cell-based, Human; conditions: human, Huh7 hepatocarcinoma cells
Summary of the method: (§1)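 Huh7 cells in 10% FCS DMEM plated at 1-2×10^4 per well in triplicate with graded compound doses, 0.25% DMSO throughout. Viability after 48 hours by CellTiter Glo luminescence, normalized to no-compound and no-cell controls; CC50 from curve fitting.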

[5] = system: RSV strain A2; assay: RSV HEp-2 EC50 (infectious cytopathic cell protection assay); type: cell-based, RSV strain A2; HEp-2 cells; conditions: read-out: RSV Hep-2 EC50
Summary of the method: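 HEp-2 cells (50,000/mL) infected with titered RSV stock, added onto compound in 3-fold serial dilutions; 4 days at 37 °C. Cell viability read by CellTiter-Glo luminescence; percent inhibition of virus-induced cytopathic effect derived from remaining viability against 0% and 100% inhibition controls.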

[6] = HEp-2 CC50 (cytotoxicity in uninfected HEp-2 cells); type: cell-based; conditions: human, CellTiter Glo
Protocol: (§2) Instead, an uninfected cell mixture at the same density is added at 20 uL/well to plates containing prediluted compounds, also at 100 nL/sample. Assay plates are then incubated for 4 days followed by a cell viability test using the same CellTiter Glo reagent addition and measurement of luminescent readouts. Untreated cell and cells treated at 2 μM puromycin (Sigma, St. Louis, MO) serve as 100% and 0% cell viability control, respectively.

[7] = system: RSV A2; assay: RSV NHBE EC50 (RSV A2 antiviral assay in NHBE cells); type: cell-based, RSV A2; normal human bronchial epithelial (NHBE) cells; conditions: human respiratory syncytial virus, 96 h; NHBE cells infected with RSV A2, 4 days, Cell-Titer Glo
Protocol: Example 88. RSV NHBE EC50
Normal human bronchial epithelial (NHBE) cells were purchased from Lonza (Walkersville, MD, Cat #CC-2540) and cultured in Bronchial Epithelial Growth Media (BEGM) (Lonza, Walkersville, MID, Cat 9 CC-3170). The cells were passaged 1-2 times per week to maintain<80% confluency. The NHBE cells were discarded after 6 passages in culture.
To conduct the RSV A2 antiviral assay, NHBE cells were plated in 96-well plates at a density of 7,500 cells per well in BEGM and allowed to attach overnight at 37° C. Following attachment, 100 μL of cell culture media was removed and 3-fold serially diluted compound was added using a Hewlett-Packard D300 Digital Dispenser. The final concentration of DMSO was normalized to 0.05%. Following compound addition, the NHBE cells were infected by the addition of 100 μL of RSV A2 at a titer of […] tissue culture infectious doses/mL in BEGM and then incubated at 37° C. for 4 days. The NHBE cells were then allowed to equilibrate to 25° C. and cell viability was determined by removing 100 μL of culture medium and adding 100 μL of Cell-Titer Glo viability reagent. The mixtures were incubated for 10 minutes at 25° C., and the luminescence signal was quantified on an Envision luminescence plate reader.

[8] = target: T1, DENV2 NS5 (Dengue virus type 2, UniProt P14340); assay: DENV Pol IC50 (DENV2-NS5 polymerase assay); type: biochemical; conditions: 100 nM DENV2 NS5, sshRNA template, 90 minutes at 30° C.
T1 construct: His tag (pET28b, thrombin-cleavable) (N); made in house; host or cells: E. coli BL21 (DE3)
Protocol: A 244 nucleotide secondary structureless heteropolymeric RNA (sshRNA) with sequence 5′-(UCAG)20(UCCAAG)14(UCAG)20-3′ (SEQ ID NO: 1) is used as the template with 5′-CUG-3′ primer in the DENV2-NS5 polymerase assay. Six two-fold dilutions of compounds starting from 200 nM and no inhibitor control are plated in 96-well plates. 100 nM DENV2 NS5 is preincubated for 5 minutes at room temperature in a reaction mixture containing 40 mM Tris-HCl (pH 7.5), 10 mM NaCl, 3 mM DTT, 0.2 unit/μL RNasin Plus RNase Inhibitor, 200 ng/μL sshRNA, 20 μM CUG and 2 mM MgCl2. Enzyme mix is added to compound dilutions and reactions initiated by the addition of a mixture containing 20 μM of three natural NTP plus 2 μM of analog:base matched competing natural NTP containing 1:100 α-33P-NTP. After 90 minutes at 30° C., 5 μL of the reaction mixtures are spotted on DE81 anion exchange paper. Filter papers are washed three times with Na2HPO4 (125 mM, pH 9) for 5 minutes, rinsed with water and ethanol, then air-dried and exposed to phosphorimager. Synthesized RNA is quantified using Typhoon Trio Imager and Image Quant TL Software and reaction rates are calculated by linear regression using GraphPad Prism 5.0. IC50 values are calculated in Prism by non-linear regression analysis using the dose-response (variable slope) equation (four-parameter logistic equation): Y=Bottom+(Top-Bottom)/(1+10^((Log IC50−X)*HillSlope)).

[9] = system: Human monocyte-derived dendritic cells (moDCs); assay: moDC CC50 (CellTiter Glo viability); type: cell-based; conditions: uninfected moDCs, 48 hours
[10] = system: Human hepatocarcinoma 7 (Huh7) cells; assay: Huh-7 CC50 (CellTiter Glo viability); type: cell-based; conditions: 48 hours
Summary of the method: as §1

[11] = system: uninfected HEp-2 cells; assay: HEp-2 CC50 (cytotoxicity in uninfected HEp-2 cells); type: cell-based; conditions: 4 days, CellTiter Glo
Protocol: as §2

[12] = Dengue virus, DENV2, Huh-7, Huh7 cells infected with Dengue serotype 2 NGC
[13] = human respiratory syncytial virus, HEp-2, 96 h

Compound COC(=O)[C@H](C)NP(=O)(OC[C@@]1(CF)O[C@@H](c2ccc3c(N)ncnn23)[C@H](OC(=O)C(C)C)[C@@H]1OC(=O)C(C)C)Oc1ccccc1 (single isomer, unassigned) [Example 11] has an EC50 ([1]; Dengue virus) of 380 nM, a CC50 at 48 h [2] of 16100 nM and an EC50 [3, 12] of 586 nM. The CC50 at 48 h [4] was greater than 18800 nM, the EC50 [5, 13] was 2040 nM and the CC50 at 4 days [6] was 12600 nM. The EC50 [7] was 367 nM.
For Nc1ncnn2c([C@@H]3O[C@](CCl)(COP(=O)(O)OP(=O)(O)OP(=O)(O)O)[C@@H](O)[C@H]3O)ccc12 [Comp. Ex. 2, ((2R,3S,4R,5S)-5-(4-aminopyrrolo[2,1-f][1,2,4]triazin-7-yl)-2-(chloromethyl)-3,4-dihydroxytetrahydrofuran-2-yl)methyl tetrahydrogen triphosphate, reference compound], the IC50 [8] was 7090 nM.
CCC(CC)COC(=O)[C@H](C)N[P@](=O)(OC[C@@]1(CF)O[C@@H](c2ccc3c(N)ncnn23)[C@H](O)[C@@H]1O)Oc1ccccc1 [Example 1, 2-ethylbutyl ((S)-(((2R,3S,4R,5S)-5-(4-aminopyrrolo[2,1-f][1,2,4]triazin-7-yl)-2-(fluoromethyl)-3,4-dihydroxytetrahydrofuran-2-yl)methoxy)(phenoxy)phosphoryl)-L-alaninate] gave an EC50 ([1]; Dengue virus) of 117 nM, a CC50 at 48 h [2] greater than 5890 nM and an EC50 [3, 12] of 151 nM. For the same compound, the CC50 at 48 h [4] was 18000 nM, the EC50 [5, 13] was 119 nM and the CC50 at 4 days [6] was greater than 50000 nM. It also gave an EC50 [7] of 595 nM.
For Nc1ncnn2c([C@@H]3O[C@](CF)(COP(=O)(O)OP(=O)(O)OP(=O)(O)O)[C@@H](O)[C@H]3O)ccc12 [Example 2, sodium ((2R,3S,4R,5S)-5-(4-aminopyrrolo[2,1-f][1,2,4]triazin-7-yl)-2-(fluoromethyl)-3,4-dihydroxytetrahydrofuran-2-yl)methyl triphosphate], the IC50 [8] was 737 nM.
COC(=O)[C@H](C)NP(=O)(OC[C@@]1(CF)O[C@@H](c2ccc3c(N)ncnn23)[C@H](O)[C@@H]1O)Oc1ccccc1 (stereo partly drawn) [Example 10, methyl ((((2R,3S,4R,5S)-5-(4-aminopyrrolo[2,1-f][1,2,4]triazin-7-yl)-2-(fluoromethyl)-3,4-dihydroxytetrahydrofuran-2-yl)methoxy)(phenoxy)phosphoryl)-L-alaninate] showed an EC50 ([1]; Dengue virus) of 679 nM, a CC50 at 48 h [2] greater than 19500 nM and an EC50 [3, 12] of 843 nM. The CC50 at 48 h [4] was greater than 25000 nM, the EC50 [5, 13] was 909 nM and the CC50 at 4 days [6] was greater than 50000 nM. It also gave an EC50 [7] of 2110 nM.
CCOC(=O)[C@H](C)NP(=O)(OC[C@@]1(CF)O[C@@H](c2ccc3c(N)ncnn23)[C@H](OC(=O)C(C)C)[C@@H]1OC(=O)C(C)C)Oc1ccccc1 (stereo partly drawn) [Example 24, (2R,3S,4S,5S)-5-(4-aminopyrrolo[2,1-f][1,2,4]triazin-7-yl)-2-((((((S)-1-ethoxy-1-oxopropan-2-yl)amino)(phenoxy)phosphoryl)oxy)methyl)-2-(fluoromethyl) tetrahydrofuran-3,4-diyl bis(2-methylpropanoate)] gave an EC50 [1] of 257 nM, a CC50 [9] of 18600 nM and an EC50 ([3]; Huh7 cells infected with Dengue serotype 2 NGC) of 1560 nM. It also gave a CC50 [10] of 16000 nM, an EC50 ([5]; HEp-2 cells infected with RSV A2, 4 days, Cell TiterGlo) of 1830 nM and a CC50 [11] of 16600 nM.
Compound Nc1ncnn2c([C@@H]3O[C@@](CO)(CF)[C@@H](O)[C@H]3O)ccc12 [Intermediate 5, (2R,3S,4R,5S)-5-(4-aminopyrrolo[2,1-f][1,2,4]triazin-7-yl)-2-(fluoromethyl)-2-(hydroxymethyl)tetrahydrofuran-3,4-diol] has an EC50 [5, 13] greater than 50000 nM, a CC50 at 4 days [6] greater than 50000 nM and an EC50 [7] greater than 4830 nM.
